Measurements reported in patent US20040010001A1, “Methods and compositions for modulating cell proliferation and cell death” (priority 1999, published 2004).
Read-outs that look alike come from different tables or passages of the source.

System: Human prostate PC3 tumor cells
Assay: aFGF/bFGF-induced resistance and reversal by suramin, sulforhodamine B assay
Format: cell-based
Experimental: The experimental conditions are described briefly below. […] Cell number was measured using the sulforhodamine B assay which measures the total protein concentration. […] The FGF-induced resistance was dependent on the FGF concentrations, with a higher resistance at higher FGF concentrations.

[1] = Homo sapiens, 96 h, read-out: IC50, Control (drug treatment only, without FGF treatment), No suramin
[2] = Homo sapiens, 96 h, read-out: IC50, aFGF 0.3 ng/ml + bFGF 1 ng/ml, No suramin
[3] = Homo sapiens, 96 h, read-out: IC50, aFGF 1 ng/ml + bFGF 3 ng/ml, No suramin
[4] = read-out: IC50, Control (without FGF treatment), Suramin, 15 μM
[5] = read-out: IC50, aFGF 0.3 ng/ml + bFGF 1 ng/ml, With suramin
[6] = read-out: IC50, aFGF 1 ng/ml + bFGF 3 ng/ml, With suramin
[7] = no suramin, relative to control
[8] = read-out: IC50, Control (drug treatment only, without FGF treatment), No suramin, drug 96 hours
[9] = read-out: IC50, Control (without FGF treatment), Suramin, 15 μM, drug 96 hours with 15 μM suramin
[10] = read-out: IC50, aFGF 0.3 ng/ml + bFGF 1 ng/ml, No suramin, FGF pretreatment 96 hours, drug 96 hours
[11] = read-out: IC50, aFGF 0.3 ng/ml + bFGF 1 ng/ml, With suramin, FGF pretreatment 96 hours, drug 96 hours with 15 micromolar suramin
[12] = read-out: IC50, aFGF 1 ng/ml + bFGF 3 ng/ml, No suramin, FGF pretreatment 96 hours, drug 96 hours
[13] = read-out: IC50, aFGF 1 ng/ml + bFGF 3 ng/ml, With suramin, FGF pretreatment 96 hours, drug 96 hours with 15 micromolar suramin
[14] = Homo sapiens, read-out: IC50, Control (drug treatment only, without FGF treatment), No suramin, drug 96 hours
[15] = Homo sapiens, read-out: IC50, aFGF 0.3 ng/ml + bFGF 1 ng/ml, No suramin, FGF pretreatment 96 hours, drug 96 hours
[16] = Homo sapiens, read-out: IC50, aFGF 1 ng/ml + bFGF 3 ng/ml, No suramin, FGF pretreatment 96 hours, drug 96 hours

IC50 [9] [nM] | IC50 [11] [nM] | IC50 [13] [nM] | IC50 [14] [nM] | IC50 [15] [nM] | IC50 [16] [nM] | Molecule | Resistance, Folds, aFGF 0.3 ng/ml + bFGF 1 ng/ml [Folds] | Resistance, Folds, aFGF 1 ng/ml + bFGF 3 ng/ml [Folds] | IC50 [1] [nM] | IC50 [2] [nM] | IC50 [3] [nM] | IC50 [4] [nM] | IC50 [5] [nM] | IC50 [6] [nM] | Resistance, Folds, aFGF 0.3 ng/ml + bFGF 1 ng/ml [7] [Folds] | Resistance, Folds, aFGF 1 ng/ml + bFGF 3 ng/ml [7] [Folds] | IC50 [8] [nM] | IC50 [10] [nM] | IC50 [12] [nM]
 |  |  |  |  |  | O=C1NC2(CCCCC2)C(=O)N1CCN(CCCl)CCCl [Spiromustine] | 2.15 | 3.46 | 25300 | 54500 | 87600 | 24400 | 25400 | 26600 |  |  |  |  | 
460 | 420 | 450 |  |  |  | Nc1ccn([C@@H]2O[C@H](CO)[C@@H](O)[C@@H]2O)c(=O)n1 [Cytarabine/Ara-C, Cytarabine] |  |  |  |  |  |  |  |  | 3.26 | 8.41 | 390 | 1270 | 3260
33.1 | 30.6 | 28.9 | 33.6 | 54 | 95.9 | COc1cc(NCc2ccc3nc(N)nc(N)c3c2C)cc(OC)c1OC [Trimetrexate] |  |  |  |  |  |  |  |  | 1.61 | 2.85 |  |  | 
 |  |  |  |  |  | Oc1ncc(N(CCCl)CCCl)c(O)n1 [Uracil Mustard] | 1.41 | 2.24 | 30000 | 42400 | 67100 | 38200 | 37600 | 34600 |  |  |  |  | 
0.35 | 0.37 | 0.43 | 0.39 | 0.53 | 0.82 | CC[C@]1(O)C[C@@H]2CN(CCc3c([nH]c4ccccc34)[C@@](C(=O)OC)(c3cc4c(cc3OC)N(C)[C@H]3[C@@](O)(C(N)=O)[C@H](O)[C@]5(CC)C=CCN6CC[C@]43[C@@H]65)C2)C1 [Vindesine] |  |  |  |  |  |  |  |  |  |  |  |  | 
1670 | 1700 | 1550 | 1570 | 2990 | 5500 | Sc1ncnc2nc[nH]c12 [6-Mercaptopurine] |  |  |  |  |  |  |  |  | 1.90 | 3.50 |  |  | 
2.02 |  |  | 2.29 |  |  | CC(=O)O[C@@]12CO[C@@H]1C[C@H](O)[C@@]1(C)C(=O)[C@H](O)C3=C(C)[C@@H](OC(=O)[C@H](O)[C@@H](NC(=O)OC(C)(C)C)c4ccccc4)C[C@@](O)([C@@H](OC(=O)c4ccccc4)[C@H]21)C3(C)C [Taxotere] |  |  |  |  |  |  |  |  |  |  |  |  | 
 |  |  |  |  |  | O=P1(N(CCCl)CCCl)NCCCO1 (stereo not shown) [Cyclophosphamide] | 2.18 | 3.00 | 510 | 1110 | 1530 | 480 | 570 | 500 |  |  |  |  | 
6.82 |  |  | 6.58 |  |  | CC[C@]1(O)C[C@H]2CN(CCc3c([nH]c4ccccc34)[C@@](C(=O)OC)(c3cc4c(cc3OC)N(C=O)[C@H]3[C@@](O)(C(=O)OC)[C@H](OC(C)=O)[C@]5(CC)C=CCN6CC[C@]43[C@@H]65)C2)C1 [Vincristine] |  |  |  |  |  |  |  |  | 4.00 | 6.77 |  |  | 

Molecule | IC50 [9] [nM] | IC50 [11] [nM] | IC50 [13] [nM] | IC50 [14] [nM] | IC50 [15] [nM] | IC50 [16] [nM] | Resistance, Folds, aFGF 0.3 ng/ml + bFGF 1 ng/ml [Folds] | Resistance, Folds, aFGF 1 ng/ml + bFGF 3 ng/ml [Folds] | IC50 [1] [nM] | IC50 [2] [nM] | IC50 [3] [nM] | IC50 [4] [nM] | IC50 [5] [nM] | IC50 [6] [nM] | Resistance, Folds, aFGF 0.3 ng/ml + bFGF 1 ng/ml [7] [Folds] | Resistance, Folds, aFGF 1 ng/ml + bFGF 3 ng/ml [7] [Folds] | IC50 [8] [nM] | IC50 [10] [nM] | IC50 [12] [nM]
Dihydrolenperone | 28100 | 26100 | 23900 |  |  |  |  |  |  |  |  |  |  |  | 1.81 | 3.37 | 24600 | 44500 | 82900
CCC1=C[C@@H]2CN(C1)Cc1c([nH]c3ccccc13)[C@@](C(=O)OC)(c1cc3c(cc1OC)N(C)[C@H]1[C@@](O)(C(=O)OC)[C@H](OC(C)=O)[C@]4(CC)C=CCN5CC[C@]31[C@@H]54)C2 [Vinorelbin] | 3.29 | 3.6 | 3.84 |  |  |  |  |  |  |  |  |  |  |  | 1.32 | 2.26 | 3.99 | 5.25 | 9.01
